{"source": "patent EP0006845A1", "about": "“Pharmaceutical composition comprising a 5-aroyl-1-C1-5 alkyl-pyrrole-2-acetic acid compound and acetaminophen or acetylsalicylic acid” (McNeilab, Inc., priority 1978, dated 1980)", "key": {"[1]": {"tested_on": "adjuvant arthritic rats", "test": "adjuvant arthritis test, evaluation of paw volume of the non-injected hind paw", "type": "in vivo, female Wistar, Lewis rats", "excerpt": "(§1) The efficacy of the novel combination of this invention in inhibiting inflammation and osteogenic degeneration is particularly seen in the adjuvant arthritis test. […] The adjuvant arthritis test, a test in which adjuvant arthritis which results both in inflammation and osteogenic changes is induced by Mycobacterium butvricum and in which the effect of the test compounds on each effect can be Determined, is considered to be .most useful for evaluation of compounds which may be suitable for the treatment of rheumatoid arthritis and other arthritic diseases. The test procedure, in which the effect on inflammation is determined by paw volume changes and the effect on osteogenic changes is determined by microscopic observation, is described by Wong et al, in J. Pharmacol.Exp.Ther. 185, 127-138, 1973, and is employed in the present determination of the potentiation of the antiarthritic properties of 5-aroyl-l-loweralkyl-pyrrole-2-acetic acid derivatives by aspirin or acetaminophen.\n(§2) Briefly, in this procedure, adjuvant arthritis is induced in female Wistar, Lewis rats (Charles River Breeding Laboratories. Inc., Wiimington, Mass.) weighing 160-190 gm by a single subcutaneous injection of 0.75 mg Mycobacterium butyricum (Difco) into the left hind paw. The non-injected hind paw remains a normal size for the first seven days. Swelling begins to appear in the non-injected paw of the first rats on Day 8. Using the paw volume determination technique (a technique in which rat paws are dippedin mercury to the hairline and the volume of displacement determined by a modified Van Arman mercury displacement method as described in the aforementioned paper of Wong et al), the time progress curve of volume changes in the non-injected (contralateral) paw is followed. […] The mean onset time for 100 rats is found to be 11.6 days with a standard deviation of 1.9 days and the frequency of onset time values distributed normally between Days 8 and 19. Thus, determinations of antiarthritic activity are made in the period Day 11 to Day 28.\n(§3) For determination of anti-inflammatory properties two different evaluations are made: (a) the evaluation of paw volume during the Phase II and Phase III periods and, (b) the evaluation of osteogenic (bone) degenration during the Phase IV period.\nFor evaluation of paw volume, adjuvant arthritic rats with early but significant signs of arthritis in the contralateral paw are selected on Day 11 and randomly assigned to the various groups of 10 animals in each group. All test -animals are dosed-daily (per os) with the test compound, preferably as sodium salt, or in saline for 17 days (Days 11 to 27 inclusive). Control animals are dosed with an equivalent volume of saline. The paw volumes of the non-injected paws are determined initially on Day 11 and again on Days 15, 18, 22, 25, and 28. The paw volumes are then compared with normal paw volumes of adjuvant arthitic rats previously determined from a reference curve relating normal paw volume to body weight. The volume of each individual rat which is greater than the normal volume is utilized in the analysis of the data. Values for drug treated animals are expressed as a percent inhibition of the paw volume change relative to the mean value for saline controls. Data is evaluated statistically and ED50 values with 95 percent confidence limits are calculated. The method for statistical analysis is described in detail in the aforementioned paper of Wong et al. The term \"ED50\" refers to the dose of drug required to produce 50 percent antagonism of the paw volume changes observed in the saline treated adjuvant arthritis controls. Suppression of paw volume changes reflects anti-inflammatory and antiarthritic activity of a test drug."}, "[2]": {"tested_on": "adjuvant arthritic rats", "test": "adjuvant arthritis test, evaluation of bone degeneration (osteogenic changes) in the non-injected hind paw", "type": "in vivo, female Wistar, Lewis rats", "conditions": "Rattus norvegicus", "excerpt": "as §1, §2, §3\nFor evaluation of bone degenerations, normal and adjuvant arthritic rats are sacrificed under C02, after the paw volume measurements have been completed on Day 28. The hind legs are removed above the knees and skinned and the soft tissues dissected away with care to avoid injury to bone and articular structures. The leg bones are then immersed in 2 percent potassium hydroxide solution for approximately four to five days until the remaining soft tissues becomes properly macerated and/or transparent, and the bones are fully visible. The leg bones are stained with Alizarin Red (0.01 percent in 2 percent KOH) for eight hours, and then processed through increasing concentrations of glycerol in water (20, 40, 60, 80 and 100 percent) for purposes of clearing the tissues for microscopic observation. The distal end of the tibiae, the tarsals, metatarsals, phalanges, and sesamoids are evaluated under a Stereozoom Microscope (a special type of dissecting microscope, product of Bausch and Lomb).\nOsteogenic changes for each bone (in 31 bone categories) in the non-injected hind paw are graded on a scale of from 0 to 10 (increasing numerical value corresponding to increasing severity of bone degeneration). A total bone degeneration score is obtained (maximum score/paw = 310 points) and then expressed as a percent score. The mean percent score (95 percent confidence limits) for saline control groups from 26 experiments (184 animals) is found to be 53.4 (50.9-55.9). Percent score values for drug treated animals are expressed as a percent inhibition relative to the mean for the saline control group. Data is evaluated statistically and ED50 values with 95 percent confidence limits are calculated."}}}
{"smiles": "Cc1ccc(C(=O)c2ccc(CC(=O)O)n2C)cc1", "note": "[Tolmetin, 1-methyl-5-p-toluoyl-pyrrole-2-acetic acid]", "values": [{"measurement": "ED50", "setting": "[1]; Rattus norvegicus, 672 h, Table IV, ED50 of tolmetin without Aspirin, Day 28, read-out: ED50", "result": 32, "unit": "mg/kg"}, {"measurement": "inhibition at 5.6 mg/kg", "setting": "[1]; Rattus norvegicus, 672 h, Tolmetin 5.6 mg/kg/day alone, Day 28, read-out: Percent Inhibition ± S.E. (Day 28)", "result": "30.5 ± 5.1", "unit": "%"}, {"measurement": "inhibition at 11.1 mg/kg", "setting": "[1]; Rattus norvegicus, 672 h, Tolmetin 11.1 mg/kg/day alone, Day 28, read-out: Percent Inhibition ± S.E. (Day 28)", "result": "34.5 ± 8", "unit": "%"}, {"measurement": "inhibition at 16.7 mg/kg", "setting": "[1]; Rattus norvegicus, 672 h, Tolmetin 16.7 mg/kg/day alone, Day 28, read-out: Percent Inhibition ± S.E. (Day 28)", "result": "58.4 ± 8.1", "unit": "%"}, {"measurement": "inhibition at 33.3 mg/kg", "setting": "[1]; Rattus norvegicus, 672 h, Tolmetin 33.3 mg/kg/day alone, Day 28, read-out: Percent Inhibition ± S.E. (Day 28)", "result": "50.8 ± 8.4", "unit": "%"}, {"measurement": "inhibition at 50 mg/kg", "setting": "[1]; Rattus norvegicus, 672 h, Tolmetin 50 mg/kg/day alone, Day 28, read-out: Percent Inhibition ± S.E. (Day 28)", "result": "62.6 ± 2.7", "unit": "%"}, {"measurement": "inhibition at 100 mg/kg", "setting": "[1]; Rattus norvegicus, 672 h, Tolmetin 100 mg/kg/day alone, Day 28, read-out: Percent Inhibition ± S.E. (Day 28)", "result": "66.4 ± 3.9", "unit": "%"}, {"measurement": "ED50", "setting": "[1]; Rattus norvegicus, Table II, tolmetin without acetaminophen, read-out: ED50 values of Tolmetin", "result": 32, "unit": "mg/kg"}, {"measurement": "inhibition at 7.5 mg/kg", "setting": "[1]; Rattus norvegicus, Tolmetin 7.5 mg/kg/day alone, read-out: Percent Inhibition of Paw Volume ± S.E.", "result": "37.8 ± 8.8", "unit": "%"}, {"measurement": "inhibition at 30 mg/kg", "setting": "[1]; Rattus norvegicus, Tolmetin 30.0 mg/kg/day alone, read-out: Percent Inhibition of Paw Volume ± S.E.", "result": "49.3 ± 9.7", "unit": "%"}, {"measurement": "inhibition at 120 mg/kg", "setting": "[1]; Rattus norvegicus, Tolmetin 120.0 mg/kg/day alone, read-out: Percent Inhibition of Paw Volume ± S.E.", "result": "78.4 ± 3", "unit": "%"}, {"measurement": "ED50", "setting": "[1]; Rattus norvegicus, po, 360 h, drug given alone per os, Day 15, read-out: ED50 Values and 95 Percent C.L.", "result": 42.1, "unit": "mg/kg"}, {"measurement": "ED50", "setting": "[1]; Rattus norvegicus, po, 432 h, drug given alone per os, Day 18, read-out: ED50 Values and 95 Percent C.L.", "result": 40.6, "unit": "mg/kg"}, {"measurement": "ED50", "setting": "[1]; Rattus norvegicus, po, 528 h, drug given alone per os, Day 22, read-out: ED50 Values and 95 Percent C.L.", "result": 32.4, "unit": "mg/kg"}, {"measurement": "ED50", "setting": "[1]; Rattus norvegicus, po, 600 h, drug given alone per os, Day 25, read-out: ED50 Values and 95 Percent C.L.", "result": 29.5, "unit": "mg/kg"}, {"measurement": "ED50", "setting": "[1]; Rattus norvegicus, po, 672 h, drug given alone per os, Day 28, read-out: ED50 Values and 95 Percent C.L.", "result": 26.4, "unit": "mg/kg"}, {"measurement": "ED50 Values and 95 Percent C.L.", "setting": "[1]; drug given alone per os, Day 28, 40320 min", "result": "26.4 (22.3 - 29.6) mg/kg/day"}, {"measurement": "inhibition at 7.5 mg/kg", "setting": "[2]; Tolmetin 7.5 mg/kg/day alone, read-out: Percent Inhibition of Bone Degeneration ± S.E.", "result": "18.6 ± 6.9", "unit": "%"}, {"measurement": "inhibition at 30 mg/kg", "setting": "[2]; Tolmetin 30.0 mg/kg/day alone, read-out: Percent Inhibition of Bone Degeneration ± S.E.", "result": "26.3 ± 3.7", "unit": "%"}, {"measurement": "inhibition at 120 mg/kg", "setting": "[2]; Tolmetin 120.0 mg/kg/day alone, read-out: Percent Inhibition of Bone Degeneration ± S.E.", "result": "51.7 ± 6.4", "unit": "%"}, {"measurement": "inhibition at 5.6 mg/kg", "setting": "[2]; bone degeneration, Tolmetin 5.6 mg/kg/day alone, read-out: Percent Inhibition ± S. E.", "result": "26.6 ± 7", "unit": "%"}, {"measurement": "inhibition at 11.1 mg/kg", "setting": "[2]; bone degeneration, Tolmetin 11.1 mg/kg/day alone, read-out: Percent Inhibition ± S. E.", "result": "28.7 ± 7.7", "unit": "%"}, {"measurement": "inhibition at 16.7 mg/kg", "setting": "[2]; bone degeneration, Tolmetin 16.7 mg/kg/day alone, read-out: Percent Inhibition ± S. E.", "result": "27.5 ± 4.9", "unit": "%"}, {"measurement": "inhibition at 33.3 mg/kg", "setting": "[2]; bone degeneration, Tolmetin 33.3 mg/kg/day alone, read-out: Percent Inhibition ± S. E.", "result": "33.4 ± 3.9", "unit": "%"}, {"measurement": "inhibition at 50 mg/kg", "setting": "[2]; bone degeneration, Tolmetin 50.0 mg/kg/day alone, read-out: Percent Inhibition ± S. E.", "result": "34.9 ± 2.7", "unit": "%"}, {"measurement": "inhibition at 100 mg/kg", "setting": "[2]; bone degeneration, Tolmetin 100 mg/kg/day alone, read-out: Percent Inhibition ± S. E.", "result": "54.2 ± 1.9", "unit": "%"}, {"measurement": "ED50", "setting": "[2]; Table III, ED50 of tolmetin without acetaminophen, read-out: ED50 values", "result": 110, "unit": "mg/kg"}, {"measurement": "ED50", "setting": "[2]; Table V, ED50 of tolmetin without Aspirin, read-out: ED50", "result": 89.7, "unit": "mg/kg"}, {"measurement": "ED50", "setting": "[2]; drug alone, suppression of osteogenic changes, data from several experiments pooled, read-out: ED50 and 95 percent C.L.", "result": 110, "unit": "mg/kg"}]}
